Laboratory results taken from paper PMC6556873, “Rapid Covalent-Probe Discovery by Electrophile-Fragment Screening” (Journal of the American Chemical Society, 2019).
Read-outs that look alike come from different tables or passages of the source.

How the values were obtained:
in vitro [1] = test: in vitro; parameters: species or system HB2, CCD841; details: human, hek293 cells
in vitro [2] = test: in vitro; parameters: species or system HB2, HEK293; details: human, ccd841 cells
NUDT7 = molecular target: T1, NUDT7 (Homo sapiens, UniProt P0C024); parameters: Intact protein LC/MS covalent labelling, fragments in pools of five, 200 uM each, 4 °C; details: 24 h, 4 °C, pool of five; 200 µM; covalent
T1 construct: residues 14-235, E. coli, pNIC28-Bsa4, N-terminal His6 tag removed by TEV, construct 26672 Da
Experimental: (§1) Incubations were performed at 200 μM for each compound and 2 μM of protein (10 μM for BSA) for 24 h at 4 °C with moderate shaking. Incubation buffers varied among proteins (PBS pH 7.4 for QSOX1 and BSA; 10 mM HEPES pH 7.5, 0.3 M NaCl, 0.5 mM TCEP for PCAF, UPS8, and NUDT7; […]; 10 mM Na2HPO4 pH 7.5 100 mM NaCl 5 mM β-mercaptoethanol for NV3CP; 20 mM Na phosphate pH 7.5 for NNMT; […]. The reaction was stopped by quenching with formic acid, 0.4% final concentration. Each protein was incubated with the electrophilic library in pools of five compounds per well. The pool’s composition maximized the difference in mass between fragments in the same well. Incubations were performed with each fragment at 200 μM, for 24 h at 4 °C, to allow the screening of proteins that are not stable for long time periods at higher temperatures. Following incubation, we used intact protein [compound left out] chromatography/mass spectrometry (LC/MS) to identify the fragments and quantify their labeling (Figure 3A). […] There was good agreement between the percent of labeling of NUDT7 by 100 random individual compounds and that obtained in pools of five (R^2=0.78; Figure S6 and Data set 2 in the Supporting Information).

BSA = molecular target: T2, BSA (Bos taurus, UniProt P02769); parameters: Intact protein LC/MS covalent labelling, fragments in pools of five, 200 uM each, 4 °C; details: 24 h, 4 °C, pool of five; 200 µM; covalent
T2 construct: gene ALB
Experimental: as §1

PCAF = molecular target: T3, PCAF (Homo sapiens, UniProt Q92831); parameters: Intact protein LC/MS covalent labelling, fragments in pools of five, 200 uM each, 4 °C; details: 24 h, 4 °C, pool of five; 200 µM; covalent
T3 construct: gene KAT2B
Experimental: as §1

OTUB2 (OTUB2A) = molecular target: T4, OTUB2 (OTUB2A) (Homo sapiens, UniProt Q96DC9); parameters: Intact protein LC/MS covalent labelling, fragments in pools of five, 200 uM each, 4 °C; details: 24 h, 4 °C, pool of five; 200 µM; covalent
T4 construct: full length residues 1-234, E. coli BL21(DE3)-R3, His tag removed by TEV, construct 27312 Da
T4 sequence (Q96DC9 1-234): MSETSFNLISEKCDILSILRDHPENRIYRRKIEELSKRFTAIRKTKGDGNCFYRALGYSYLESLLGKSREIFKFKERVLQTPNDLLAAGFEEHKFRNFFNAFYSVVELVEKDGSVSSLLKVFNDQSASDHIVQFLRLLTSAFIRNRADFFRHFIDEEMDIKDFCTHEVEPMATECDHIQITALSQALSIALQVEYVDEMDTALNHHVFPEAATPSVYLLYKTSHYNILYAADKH
Experimental: as §1

in vitro [3] = test: in vitro; parameters: species or system CCD841, HEK293; details: human, hb2 cells, read-out: HB-2 Cells Viability (%)

T3 sequence (Q92831 whole entry, the tested form may be a part): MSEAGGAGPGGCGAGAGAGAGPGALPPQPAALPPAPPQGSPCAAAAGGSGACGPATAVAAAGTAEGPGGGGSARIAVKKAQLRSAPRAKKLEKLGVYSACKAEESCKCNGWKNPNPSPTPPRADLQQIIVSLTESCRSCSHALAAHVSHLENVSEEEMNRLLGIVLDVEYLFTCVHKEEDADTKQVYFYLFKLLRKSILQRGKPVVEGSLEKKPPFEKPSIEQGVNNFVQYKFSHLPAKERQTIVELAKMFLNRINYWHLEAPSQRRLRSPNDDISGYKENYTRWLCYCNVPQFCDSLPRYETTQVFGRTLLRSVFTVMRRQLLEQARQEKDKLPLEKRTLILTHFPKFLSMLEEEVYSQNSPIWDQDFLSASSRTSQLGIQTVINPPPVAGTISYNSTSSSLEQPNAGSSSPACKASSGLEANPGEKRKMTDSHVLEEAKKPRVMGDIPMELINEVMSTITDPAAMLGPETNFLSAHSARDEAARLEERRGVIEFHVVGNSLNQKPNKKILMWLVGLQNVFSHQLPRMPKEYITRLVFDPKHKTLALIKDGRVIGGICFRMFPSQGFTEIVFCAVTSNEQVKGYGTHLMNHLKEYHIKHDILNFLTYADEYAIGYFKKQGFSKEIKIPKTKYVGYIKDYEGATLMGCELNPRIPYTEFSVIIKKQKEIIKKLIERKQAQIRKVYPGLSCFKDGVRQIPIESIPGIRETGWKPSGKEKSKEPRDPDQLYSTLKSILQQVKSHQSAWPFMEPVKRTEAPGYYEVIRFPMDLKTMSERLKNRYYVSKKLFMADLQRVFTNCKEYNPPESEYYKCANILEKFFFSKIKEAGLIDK
T1 sequence (P0C024 14-235): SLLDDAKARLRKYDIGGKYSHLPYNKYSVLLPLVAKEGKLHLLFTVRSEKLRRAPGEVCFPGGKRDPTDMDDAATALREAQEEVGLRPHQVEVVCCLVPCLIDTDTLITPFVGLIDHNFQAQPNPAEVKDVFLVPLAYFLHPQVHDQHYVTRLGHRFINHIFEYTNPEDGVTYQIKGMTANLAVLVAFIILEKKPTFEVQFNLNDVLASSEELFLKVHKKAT
T2 sequence (P02769 whole entry, the tested form may be a part): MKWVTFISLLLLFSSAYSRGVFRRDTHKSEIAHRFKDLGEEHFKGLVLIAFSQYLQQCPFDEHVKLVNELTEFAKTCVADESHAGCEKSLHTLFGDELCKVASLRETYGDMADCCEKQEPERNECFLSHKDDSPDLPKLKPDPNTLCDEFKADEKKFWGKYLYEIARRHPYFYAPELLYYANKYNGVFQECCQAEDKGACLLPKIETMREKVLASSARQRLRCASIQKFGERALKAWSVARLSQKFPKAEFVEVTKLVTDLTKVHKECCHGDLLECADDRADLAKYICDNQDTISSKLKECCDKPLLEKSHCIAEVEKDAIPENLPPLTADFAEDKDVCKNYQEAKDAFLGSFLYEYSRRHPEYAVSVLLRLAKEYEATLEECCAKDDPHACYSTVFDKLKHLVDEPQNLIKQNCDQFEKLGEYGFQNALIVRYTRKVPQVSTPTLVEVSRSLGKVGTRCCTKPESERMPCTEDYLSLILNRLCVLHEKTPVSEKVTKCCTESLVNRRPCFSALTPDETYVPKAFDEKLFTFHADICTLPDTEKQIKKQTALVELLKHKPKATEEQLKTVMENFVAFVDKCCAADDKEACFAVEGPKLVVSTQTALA

NUDT7 (NUDT7)	BSA (BSA)	PCAF (PCAF)	OTUB2 (OTUB2 (OTUB2A))	Compound	viability at 48 h, 10 µM (in vitro [1]) [%]	viability at 48 h, 10 µM (in vitro [2]) [%]	viability at 48 h, 10 µM (in vitro [3]) [%]
0	0	0	0	Cc1nc(NC(=O)CCl)c(Cl)cc1Cl [PCM-0102206]	101	105	110
0.07	0	0	0	CC1Cc2cc(S(N)(=O)=O)ccc2N1C(=O)CCl (centres unmarked) [PCM-0102207]	16.5	34.2	58.7
0.19	0	0	0.46	Cc1ccc(NC(=O)CCl)cc1Cl [PCM-0102208]	1.2	37.4	3.7
0.13	0	0	0.27	O=C(CCl)Nc1cc2c(cc1Cl)OCO2 [PCM-0102209]	47.1	70.7	58.1
0	0	0	0.25	COc1cc(Cl)c(C)cc1NC(=O)CCl [PCM-0102210]	5.5	64.1	8.5
0	0	0	0	Cc1nnc(NC(=O)CCl)s1 [PCM-0102211]	90.5	86.7	99.8
0.54	0	0	0.18	CC(NC(=O)CCl)c1ccc(Cl)cc1Cl (centres unmarked) [PCM-0102212]	37.3	58.2	37.4
0	0	0	0	Cl.O=C(CCl)N1CCN(c2ccccn2)CC1 [PCM-0102213]	81.6	94.7	84.5
0.32	0	0	0	CC1CCN(C(=O)CCl)c2ccccc2S1 (centres unmarked) [PCM-0102216]	42.4	52.4	77.3
0	0.13	0	0.14	O=C(CCl)Nc1ccc(F)c(Cl)c1 [PCM-0102217]	1.1	18.8	2.5
0.28	0	0	0	O=C(CCl)Nc1cc(C(F)(F)F)ccc1-n1cncn1 [PCM-0102218]	17.7	63.7	42.2
0	0	0	0	O=C(Nc1ccccc1)C1CCN(C(=O)CCl)CC1 [PCM-0102219]	5.6	34.2	5.6
0.05	0	0	0	CS(=O)(=O)c1ccc(Cl)c(NC(=O)CCl)c1 [PCM-0102220]	21.3	60.9	45.5
0	0	0	0.15	CNC(=O)C1CN(C(=O)CCl)c2ccccc2O1 (centres unmarked) [PCM-0102221]	53	58.1	82.1
0	0.2	0	0	O=C(CCl)NC(=O)c1cccs1 [PCM-0102222]	109	105	110
0	0	0	0	N#CC(c1cccs1)N1CCN(C(=O)CCl)CC1 (centres unmarked) [PCM-0102223]	64.6	75.5	74
0	0	0	0.35	Cc1ccc(-n2nc(C)cc2NC(=O)CCl)cc1 [PCM-0102224]	24.9	67.5	49.3
0	0	0	0	Cc1n[nH]c(=O)c2c(NC(=O)CCl)oc(C)c12 [PCM-0102226]	104	112	108
0	0	0	0	O=C(CCl)Nc1ccc(Br)cn1 [PCM-0102227]	72.4	75.7	84.3
0	0	0	0	CC1(NC(=O)CCl)CCS(=O)(=O)C1 (centres unmarked) [PCM-0102230]	92.6	92.7	105
0.33	0	0	0	CCc1nc(NC(=O)CCl)sc1C [PCM-0102231]	56.5	78.9	61.1
0.24	0	0	0.2	O=C(CCl)Nc1ccccc1[N+](=O)[O-] [PCM-0102232]	73.9	81.8	75.4
0.26	0	0	0.25	O=C(CCl)Nc1nc(-c2c[nH]c3ccccc23)cs1 [PCM-0102233]	6.5	65	4.8
0	0	0	0.28	COc1ccccc1NC(=O)CCl [PCM-0102236]	58.4	79	71
0.06	0	0	0	O=C(CCl)N1CCN(S(=O)(=O)c2ccc(F)cc2)CC1 [PCM-0102237]	66.9	77	78.8
0.23	0	0	0.32	O=C(CCl)Nc1ccc(F)c([N+](=O)[O-])c1 [PCM-0102238]	0.8	3.7	1
0.08	0.07	0	0	Cl.O=C(CCl)N1CCN(c2cccc(C(F)(F)F)c2)CC1 [PCM-0102239]	19.6	28.2	4.2
0	0	0	0.2	O=C(CCl)NNC(=O)c1ccccc1 [PCM-0102240]	92.4	85.6	98.1
0	0.17	0	0	O=C(CCl)Nc1nccs1 [PCM-0102242]	70.1	79.3	88.3
